Measured values published in patent US8969335B2, “Benzonitrile derivatives as kinase inhibitors” (MERCK PATENT GmbH, priority 2011, dated 2015).

Columns and labels:
[1] = test system: TBK1 + IKKε (phospho-IRF3 @ Ser 386, MDA-MB-468 cells); test: TBK1 + IKKε cell assay: dose response inhibition of phospho-IRF3 @ Ser 386 in MDA-MB-468 cells; type: cell-based; details: Homo sapiens, poly(I:C) stimulation, nuclear phospho-IRF3, read-out: TBK1 + IKKε cell assay IC50
Protocol: Day 1: MDA-MB-468 cells are detached using HyQ-Tase, counted and sown into a 384-well plate with TC surface and clear bottom in a density of 10,000 cells per well in a total volume of 35 μl of complete medium. Alternatively, the cells are sown directly from frozen glass vials.
Day 2: The cells are pre-treated with inhibitor compounds for 1 h prior to poly(I:C) stimulation. After incubation for 2 h with poly(I:C), the cells are fixed in (para)formaldehyde (PFA) and permeabilised using methanol (MeOH). The cells are then blocked and incubated with an anti-pIRF3 antibody at 4° C. overnight.
Day 3: The primary antibody is washed off, an AlexaFluor488-conjugated secondary antibody is added, the cells are contrast-stained with propidium iodide, followed by image acquisition on an IMX ultra-high content reader.

IKKε = IKKε (Homo sapiens (Human), UniProt Q14164); test: IKKε kinase assay (384-well flashplate assay); type: biochemical; details: 1 nM IKKε, 10 μM ATP, 30° C., 2 hours; read-out: IKKε enzyme assay IC50
Procedure, shortened: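 Recombinant IKKε (1 nM) phosphorylates biotinylated IκBα(19-42) peptide (800 nM) with 10 μM ATP spiked with ^33P-ATP, 2 h at 30° C in MOPS buffer pH 7.5. Stopped with EDTA, captured on flashplate, radioactivity counted; nonspecific signal defined with 3 μM BX-795; IC50 derived.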

[2] = target: TANK binding kinase (TBK1) (Homo sapiens (Human), UniProt Q9UHD2); test: TBK1 enzyme assay (384-well flashplate kinase assay); type: biochemical; details: 0.6 nM TBK1, 10 μM ATP, 30° C., 120 min
TANK binding kinase (TBK1), sequence (Q9UHD2 whole entry): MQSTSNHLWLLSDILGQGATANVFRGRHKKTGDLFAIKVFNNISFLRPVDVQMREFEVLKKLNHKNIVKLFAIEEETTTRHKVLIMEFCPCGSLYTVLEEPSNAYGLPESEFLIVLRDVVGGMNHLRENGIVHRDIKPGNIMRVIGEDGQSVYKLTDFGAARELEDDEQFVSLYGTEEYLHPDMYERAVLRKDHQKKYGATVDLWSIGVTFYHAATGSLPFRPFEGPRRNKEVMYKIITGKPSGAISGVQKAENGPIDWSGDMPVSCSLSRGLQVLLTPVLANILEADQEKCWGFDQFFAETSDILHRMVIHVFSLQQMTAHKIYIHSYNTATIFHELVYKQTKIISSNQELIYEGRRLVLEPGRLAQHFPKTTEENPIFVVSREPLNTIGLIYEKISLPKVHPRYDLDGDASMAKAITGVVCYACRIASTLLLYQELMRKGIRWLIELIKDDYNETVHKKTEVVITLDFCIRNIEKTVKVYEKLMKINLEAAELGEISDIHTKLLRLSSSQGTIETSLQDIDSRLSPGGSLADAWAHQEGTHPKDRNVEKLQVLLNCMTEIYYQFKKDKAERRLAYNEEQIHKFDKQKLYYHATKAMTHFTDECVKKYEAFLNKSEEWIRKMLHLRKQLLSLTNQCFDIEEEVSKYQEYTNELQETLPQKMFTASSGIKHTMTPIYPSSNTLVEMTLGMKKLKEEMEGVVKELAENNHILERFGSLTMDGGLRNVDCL

IKKε, sequence (Q14164 whole entry): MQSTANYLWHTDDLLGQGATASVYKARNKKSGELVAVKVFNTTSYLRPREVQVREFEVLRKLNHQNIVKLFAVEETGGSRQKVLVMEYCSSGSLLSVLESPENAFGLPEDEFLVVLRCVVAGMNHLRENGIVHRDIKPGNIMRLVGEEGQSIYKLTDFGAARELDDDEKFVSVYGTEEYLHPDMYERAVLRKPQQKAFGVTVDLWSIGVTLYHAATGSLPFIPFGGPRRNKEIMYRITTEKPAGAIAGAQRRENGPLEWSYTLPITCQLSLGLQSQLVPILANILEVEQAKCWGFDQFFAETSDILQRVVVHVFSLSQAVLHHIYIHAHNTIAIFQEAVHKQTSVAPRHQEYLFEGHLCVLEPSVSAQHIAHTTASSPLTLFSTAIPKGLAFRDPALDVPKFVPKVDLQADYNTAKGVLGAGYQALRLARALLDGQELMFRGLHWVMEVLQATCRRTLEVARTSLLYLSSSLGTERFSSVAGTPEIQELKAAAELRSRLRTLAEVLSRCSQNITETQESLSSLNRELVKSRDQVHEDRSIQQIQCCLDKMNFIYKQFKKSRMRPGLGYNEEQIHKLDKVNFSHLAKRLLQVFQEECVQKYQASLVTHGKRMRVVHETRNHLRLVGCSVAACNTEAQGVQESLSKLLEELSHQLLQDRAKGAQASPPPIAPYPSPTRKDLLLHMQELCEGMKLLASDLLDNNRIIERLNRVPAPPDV

SMILES | IC50 [1] [nM] | IC50 (IKKε) [nM] | IC50 [2] [nM]
N#Cc1cc(-c2ccnc(Nc3cnn(CCN4CCCC4)c3)n2)ccc1OC1CCOCC1 [Compound A83, 5-{2-[1-(2-pyrrolidin-1-ylethyl)-1H-pyrazol-4-ylamino]pyrimidin-4-yl}-2-(tetrahydropyran-4-yloxy)benzonitrile] | 5300 | 88 | 60
N#Cc1cc(-c2ccnc(Nc3ccc(N4CCOCC4)nn3)c2)ccc1OC1CCOCC1 [Compound A90, 5-[2-(6-morpholin-4-ylpyridazin-3-ylamino)pyridin-4-yl]-2-(tetrahydropyran-4-yloxy)benzonitrile] | 1300 | 98 | 88
N#Cc1cc(-c2ccnc(Nc3cccc(C4CCNCC4)n3)c2)ccc1OC1CCOCC1 [Compound A91, 5-[2-(1′,2′,3′,4′,5′,6′-hexahydro-[2,4′]bipyridinyl-6-ylamino)pyridin-4-yl]-2-(tetrahydropyran-4-yloxy)benzonitrile] | 2300 | 8 | 32
N#Cc1cc(-c2ccnc(Nc3cnn(CCO)c3)n2)ccc1OCC1CCC1 [Compound A94, 2-cyclobutylmethoxy-5-{2-[1-(2-hydroxyethyl)-1H-pyrazol-4-ylamino]pyrimidin-4-yl}benzonitrile] | 980 | 18 | 14
N#Cc1cc(-c2ccnc(Nc3cnn(C[C@H]4C[C@@H]4CO)c3)n2)ccc1OCC1CCC1 [Compound A95, 2-cyclobutylmethoxy-5-{2-[1-((1S,2S)-2-hydroxymethylcyclopropylmethyl)-1H-pyrazol-4-ylamino]pyrimidin-4-yl}benzonitrile] | 810 | 8 | 10
N#Cc1cc(-c2ccnc(Nc3cncc(C4CCNCC4)n3)c2)ccc1OC1CCOCC1 [Compound A96, 5-[2-(6-piperidin-4-ylpyrazin-2-ylamino)pyridin-4-yl]-2-(tetrahydropyran-4-yloxy)benzonitrile] | 5400 | 40 | 24
N#Cc1cc(-c2ccnc(Nc3cnn([C@H]4CC[C@@H](O)CC4)c3)n2)ccc1OCC1CCC1 [Compound A97, 2-cyclobutylmethoxy-5-{2-[1-(4-hydroxycyclohexyl)-1H-pyrazol-4-ylamino]-pyrimidin-4-yl}benzonitrile] | 2100 | 39 | 11
N#Cc1cc(-c2ccnc(Nc3cnc(C4CCOCC4)cn3)c2)ccc1OC1CCOCC1 [Compound A98, 2-(tetrahydropyran-4-yloxy)-5-{2-[5-(tetrahydropyran-4-yl)pyrazin-2-yl-amino]pyridin-4-yl}benzonitrile] | 390 | 8 | 5
N#Cc1cc(-c2ccnc(Nc3cnc(CO)cn3)c2)ccc1OC1CCOCC1 [Compound A99, 5-[2-(5-hydroxymethylpyrazin-2-ylamino)pyridin-4-yl]-2-(tetrahydropyran-4-yloxy)benzonitrile] | 320 | 8 | 6
N#Cc1cc(-c2ccnc(Nc3cnn([C@H]4CC[C@H](O)CC4)c3)n2)ccc1OC1CCOCC1 [Compound A101, 5-{2-[1-(4-hydroxycyclohexyl)-1H-pyrazol-4-ylamino]pyrimidin-4-yl}-2-(tetrahydropyran-4-yloxy)benzonitrile] | 440 | 5 | 3
COCCn1cc(Nc2nccc(-c3ccc(OCC4CCC4)c(C#N)c3)n2)cn1 [Compound A103, 2-cyclobutylmethoxy-5-{2-[1-(2-methoxyethyl)-1H-pyrazol-4-ylamino]pyrimidin-4-yl}benzonitrile] | 890 | 8 | 7
N#Cc1cc(-c2ccnc(Nc3ccc(CO)cn3)c2)ccc1OCC1CC1 [Compound A106, 2-cyclopropylmethoxy-5-[2-(5-hydroxymethylpyridin-2-ylamino)pyridin-4-yl]benzonitrile] | 4100 | 46 | 41
N#Cc1cc(-c2ccnc(Nc3ccn(C4CCNCC4)n3)c2)ccc1OCC1CC1 [Compound A107, 2-cyclopropylmethoxy-5-[2-(1-piperidin-4-yl-1H-pyrazol-3-ylamino)pyridin-4-yl]benzonitrile] | 11000 | 30 | 50
N#Cc1cc(-c2ccnc(Nc3ccc(N4CCOCC4)cn3)c2)ccc1OCC1CC1 [Compound A108, 2-cyclopropylmethoxy-5-[2-(5-morpholin-4-ylpyridin-2-ylamino)pyridin-4-yl]benzonitrile] | 1200 | 45 | 23
N#Cc1cc(-c2ccnc(Nc3ccc(N4CCOCC4)cn3)c2)ccc1OCC1CCC1 [Compound A113, 2-cyclobutylmethoxy-5-[2-(5-morpholin-4-ylpyridin-2-ylamino)pyridin-4-yl]benzonitrile] | 2900 | 120 | 54
N#Cc1cc(-c2ccnc(Nc3ccc(CN4CCOCC4)cn3)c2)ccc1OC1CCOCC1 [Compound A118, 5-[2-(5-morpholin-4-ylmethylpyridin-2-ylamino)pyridin-4-yl]-2-(tetrahydropyran-4-yloxy)benzonitrile] | 450 | 25 | 24
